From US5571844A, “Amidinophenylalanine derivatives, a process for their preparation, their use and compositions containing these as anticoagulants” (Behringwerke Aktiengesellschaft, priority 1993, dated 1996)

Columns and labels:
[1] = Determination of the elimination half-lives t1/2 β, intravenous, rats; format: in vivo; details: rat, i.v., 5 mg/kg, plasma, calculated, second phase
Description: Determination of the Elimination Half-lives t1/2 β The thrombin inhibitors (2)-(5) in the table were administered intravenously to rats (5 in each group) at a dosage of 5 mg/kg. Blood samples were taken, and the time-dependent concentrations of thrombin inhibitors in the plasma were determined. Elimination takes place in two phases. The calculated elimination half-lives t1/2 β are compiled in it.

[2] = Determination of the subcutaneous absorption of substances (2) and (5), rabbits; format: in vivo; details: 2 mg/kg
Description: The substances were administered to rabbits subcutaneously in a dosage of 2 mg/kg. The maximum plasma concentration of (5) was reached after 5 minutes. The maximum plasma concentration of (2) was reached after 80 minutes.

trypsin = molecular target: T1, trypsin (Bos taurus, UniProt P00760); experiment: Ki with respect to trypsin (specificity of the inhibitors); format: biochemical
T1 sequence (P00760 24-246): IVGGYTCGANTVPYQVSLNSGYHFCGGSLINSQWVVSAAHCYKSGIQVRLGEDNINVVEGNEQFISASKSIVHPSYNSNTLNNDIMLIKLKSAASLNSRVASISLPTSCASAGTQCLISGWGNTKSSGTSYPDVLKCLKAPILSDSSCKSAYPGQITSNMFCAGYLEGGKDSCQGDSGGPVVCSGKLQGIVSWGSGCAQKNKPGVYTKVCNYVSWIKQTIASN
Description: (§1) The inhibitors according to the invention have been tested according to various criteria to assess their efficacy, these preferably being the determination of the Ki value, of the IC50 value and of the partial thrombo-plastin time (PTT) in vivo and in vitro. To test the specificity, the IC50 values and Ki values with respect to various serine proteases, especially thrombin and trypsin, were measured. The stability of the substances according to the invention was determined by incubating a sample of the substance with a pure enzyme, preferably trypsin, chymotrypsin or papain, and with liver or intestinal homogenates, taking samples from the solutions at intervals of time, and preferably measuring by HPLC.
The specificity of the inhibitors was determined with thrombin and trypsin. The specificity is defined as the ratio of the Ki values for trypsin and thrombin (table).

human thrombin = human thrombin (Homo sapiens, UniProt P00734); experiment: Determination of the inhibition constants (Ki) for thrombin; format: biochemical; details: human thrombin 100 pM, substrate S2238, pH 7.8, 37 degrees C., 60 min preincubation
Description: as §1
The inhibition constants (Ki) for the substances were determined by known enzyme kinetic methods. The human thrombin employed was determined to be 87% pure by means of active site titration. […] The inhibitor and enzyme were preincubated for 60 minutes, and the reaction was started by addition of the chromogenic substrate S2238. The kinetics were analyzed using the mathematical algorithm for tight binding, which with the aid of non-linear regression yielded Ki values (table) and the type of inhibition.

COc1cc(C)c(S(=O)(=O)N[C@@H](CC(=O)O)C(=O)N[C@H](Cc2ccc(C(=N)N)cc2)C(=O)N2CCCCC2)c(C)c1C [(5)]
half-life [1]: 19 min | Tmax ([2]; rabbit, plasma, sc, read-out: time to maximum plasma concentration (converted)): 5 min | duration of effective plasma level ([2]; s.c.): 3 h | Ki (trypsin): 312 nM | Ki (human thrombin): 2.5 nM
